For 10 compounds, IC50 results are on record in patent US9771369B2, “Compounds and methods for kinase modulation, and indications therefor” (Plexxikon Inc., priority 2014, dated 2017).

SMILES strings stand for the structures.

Sequence of c-Kit kinase (P10721 26-976): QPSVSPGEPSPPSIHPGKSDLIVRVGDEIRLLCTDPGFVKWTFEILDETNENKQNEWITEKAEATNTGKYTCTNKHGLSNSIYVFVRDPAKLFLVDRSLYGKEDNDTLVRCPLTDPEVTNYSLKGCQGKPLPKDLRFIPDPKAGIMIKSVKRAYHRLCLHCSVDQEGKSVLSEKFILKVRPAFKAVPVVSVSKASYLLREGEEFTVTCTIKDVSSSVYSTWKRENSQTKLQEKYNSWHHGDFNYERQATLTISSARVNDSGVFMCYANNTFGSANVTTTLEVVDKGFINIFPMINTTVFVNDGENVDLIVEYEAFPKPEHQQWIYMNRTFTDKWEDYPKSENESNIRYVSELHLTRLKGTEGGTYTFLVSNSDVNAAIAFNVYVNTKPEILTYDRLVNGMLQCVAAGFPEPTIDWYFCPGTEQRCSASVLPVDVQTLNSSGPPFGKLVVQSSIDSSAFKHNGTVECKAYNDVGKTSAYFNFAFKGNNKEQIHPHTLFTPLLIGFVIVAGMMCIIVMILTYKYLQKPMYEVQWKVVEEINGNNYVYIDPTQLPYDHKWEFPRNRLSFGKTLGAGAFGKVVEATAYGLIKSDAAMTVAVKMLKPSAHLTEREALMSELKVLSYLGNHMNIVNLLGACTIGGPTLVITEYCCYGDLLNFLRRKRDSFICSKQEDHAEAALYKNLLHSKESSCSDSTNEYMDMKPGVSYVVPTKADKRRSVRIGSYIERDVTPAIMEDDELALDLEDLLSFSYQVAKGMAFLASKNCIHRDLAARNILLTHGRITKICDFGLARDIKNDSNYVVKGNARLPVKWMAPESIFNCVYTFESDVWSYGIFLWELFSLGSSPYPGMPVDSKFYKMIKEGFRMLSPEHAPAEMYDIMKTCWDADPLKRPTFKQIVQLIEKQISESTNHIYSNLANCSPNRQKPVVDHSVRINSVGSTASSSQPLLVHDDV

The target of this experiment is c-Kit kinase (Homo sapiens (Human), UniProt P10721). Description: c-Kit biochemical assay (AlphaScreen kinase activity). The method, boiled down:
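AlphaScreen: c-Kit phosphorylates biotin-(E4Y)3 (100 nM) at 10 μM ATP, pH 7.2 HEPES buffer with Mg/Mn, 5% DMSO, 1 h room temperature; streptavidin donor and PY30 acceptor beads detect product. Second format: 100 μM ATP, 30 nM biotin-(E4Y)10, pH 7.5. IC50 from 8-point 1:3 dilution curves.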
On the technique in general: In Alpha technology, singlet oxygen from a donor bead excites a nearby acceptor bead.
Regarding `COc1ccc(-c2[nH]c(C3(C)CCN(c4ncnc5[nH]c(-c6ccc(NS(C)(=O)=O)cc6)cc45)CC3)nc2C)cc1F` [P-3213, N-[4-[4-[4-[5-(3-fluoro-4-methoxy-phenyl)-4-methyl-1H-imidazol-2-yl]-4-methyl-1-piperidyl]-7H-pyrrolo[2,3-d]pyrimidin-6-yl]phenyl]methanesulfonamide], the IC50 (in general, the concentration needed to halve the response being measured) lay within 0.0001 to 1 µM.
`COc1ccc(-c2[nH]c(C3(C)CCN(c4ncnc5[nH]c(-c6ccc(OCC(=O)O)cc6)cc45)CC3)nc2C)cc1F` [P-3214, 2-[4-[4-[4-[5-(3-fluoro-4-methoxy-phenyl)-4-methyl-1H-imidazol-2-yl]-4-methyl-1-piperidyl]-7H-pyrrolo[2,3-d]pyrimidin-6-yl]phenoxy]acetic acid]: the IC50 fell in the range of 0.0001 to 1 µM.
The figure for `COc1ccc(-c2[nH]c(C3(C)CCN(c4ncnc5[nH]c(-c6ccc(N7CCOCC7)nc6)cc45)CC3)nc2C)cc1F` [P-3215, 4-[5-[4-[4-[5-(3-fluoro-4-methoxy-phenyl)-4-methyl-1H-imidazol-2-yl]-4-methyl-1-piperidyl]-7H-pyrrolo[2,3-d]pyrimidin-6-yl]-2-pyridyl]morpholine] is 0.0001 to 1 µM; for `COc1ccc(-c2[nH]c(C3(C)CCN(c4ncnc5[nH]c(-c6ccc(C(N)=O)cc6)cc45)CC3)nc2C)cc1C` [P-3216, 4-[4-[4-[5-(4-methoxy-3-methyl-phenyl)-4-methyl-1H-imidazol-2-yl]-4-methyl-1-piperidyl]-7H-pyrrolo[2,3-d]pyrimidin-6-yl]benzamide] it is 0.0001 to 1 µM; for `COc1ccc(-c2[nH]c(C3(C)CCN(c4ncnc5[nH]c(-c6ccc(OCC(=O)O)cc6)cc45)CC3)nc2C)cc1C` [P-3217, 2-[4-[4-[4-[5-(4-methoxy-3-methyl-phenyl)-4-methyl-1H-imidazol-2-yl]-4-methyl-1-piperidyl]-7H-pyrrolo[2,3-d]pyrimidin-6-yl]phenoxy]acetic acid] it is 0.0001 to 1 µM.
For `CNC(=O)c1ccc(-c2cc3c(N4CCC(C)(c5nc(C)c(-c6ccc(OC)c(C)c6)[nH]5)CC4)ncnc3[nH]2)cn1` [P-3218, 5-[4-[4-[5-(4-methoxy-3-methyl-phenyl)-4-methyl-1H-imidazol-2-yl]-4-methyl-1-piperidyl]-7H-pyrrolo[2,3-d]pyrimidin-6-yl]-N-methyl-pyridine-2-carboxamide], the IC50 lay within 0.0001 to 1 µM.
For the compound `COc1ccc(-c2[nH]c(C3(C)CCN(c4ncnc5[nH]c(-c6ccc(N7CCOCC7)nc6)cc45)CC3)nc2C)cc1C` [P-3219, 4-[5-[4-[4-[5-(4-methoxy-3-methyl-phenyl)-4-methyl-1H-imidazol-2-yl]-4-methyl-1-piperidyl]-7H-pyrrolo[2,3-d]pyrimidin-6-yl]-2-pyridyl]morpholine], the IC50 was in the range of 0.0001 to 1 µM.
`CNC(=O)c1ccc(-c2cc3c(N4CCC(C)(c5nc(C)c(-c6ccc(OC)c(F)c6)[nH]5)CC4)ncnc3[nH]2)cn1` [P-3220, 5-[4-[4-[5-(3-fluoro-4-methoxy-phenyl)-4-methyl-1H-imidazol-2-yl]-4-methyl-1-piperidyl]-7H-pyrrolo[2,3-d]pyrimidin-6-yl]-N-methyl-pyridine-2-carboxamide] had an IC50 of 0.0001 to 1 µM.
Compound `COc1cccc(-c2[nH]c(C3(C)CCN(c4ncnc5[nH]c(-c6ccc(OCC(=O)O)cc6)cc45)CC3)nc2C)c1` [P-3221, 2-[4-[4-[4-[5-(3-methoxyphenyl)-4-methyl-1H-imidazol-2-yl]-4-methyl-1-piperidyl]-7H-pyrrolo[2,3-d]pyrimidin-6-yl]phenoxy]acetic acid] registered an IC50 of 0.0001 to 1 µM.
In turn, `CNC(=O)c1ccc(-c2cc3c(N4CCC(C)(c5nc(C)c(-c6cccc(OC)c6)[nH]5)CC4)ncnc3[nH]2)cn1` [P-3222, 5-[4-[4-[5-(3-methoxyphenyl)-4-methyl-1H-imidazol-2-yl]-4-methyl-1-piperidyl]-7H-pyrrolo[2,3-d]pyrimidin-6-yl]-N-methyl-pyridine-2-carboxamide] showed an IC50 of 0.0001 to 1 µM.
